The assay deals with T1, mPDE10A7 (Mus musculus, UniProt Q8CA95).
T1 sequence (Q8CA95 446-763 limits assumed): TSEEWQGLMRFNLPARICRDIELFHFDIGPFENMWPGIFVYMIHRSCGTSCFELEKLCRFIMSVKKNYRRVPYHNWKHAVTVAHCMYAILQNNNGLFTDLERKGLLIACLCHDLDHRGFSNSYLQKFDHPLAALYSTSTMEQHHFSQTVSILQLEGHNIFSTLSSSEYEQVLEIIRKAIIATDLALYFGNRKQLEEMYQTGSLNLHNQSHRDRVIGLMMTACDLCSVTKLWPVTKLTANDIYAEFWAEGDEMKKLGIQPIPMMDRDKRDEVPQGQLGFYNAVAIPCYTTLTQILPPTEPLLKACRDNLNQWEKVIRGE
The experiment in a line: mPDE10A7 enzyme inhibition (IMAP fluorescence polarization). It is filed as biochemical. The settings on record: fluorescein labeled cAMP or cGMP substrate. As to the method:
To analyze the enzyme activity, 5 μL of serial diluted mPDE10A7 containing lysate were incubated with equal volumes of diluted (100-fold) fluorescein labeled cAMP or cGMP for 30 minutes in MDC HE 96-well assay plates at room temperature. Both the enzyme and the substrates were diluted in the following assay buffer: Tris/HCl (pH 8.0) 50 mM, MgCl2 5 mM, 2-mercaptoethanol 4 mM, BSA 0.33 mg/mL. After incubation, the reaction was stopped by adding 20 μL of diluted (400-fold) binding reagents and was incubated for an hour at room temperature. The plates were counted in an Analyst GT (Molecular Devices) for fluorescence polarization. An IMAP Assay kit (Molecular Device) was used to assess enzyme properties of mmPDE10A7. Data were analyzed with SoftMax Pro.
To check the inhibition profile, 10 μL of serial diluted compounds were incubated with 30 μl of diluted PDE enzymes in a 96-well polystyrene assay plate for 30 minutes at room temperature. After incubation, 5 μL of the compound-enzyme mixture were aliquoted into a MDC HE black plate, mixed with 5 μL of 100-fold diluted fluorescein labeled substrates (cAMP or cGMP), and incubated for 30 minutes at room temperature. The reaction was stopped by adding 20 μL of diluted binding reagents and counted in an Analyst GT for fluorescence polarization. The data were analyzed with SoftMax Pro.
By IC50 is commonly meant the concentration at which inhibition is half-maximal. A higher IC50 goes with a need for much substance. Turning to `COc1cc2nncc(-c3ccc(Nc4nnc(C5CC5)s4)nc3)c2cc1OC` [Cpd 119], the IC50 was found to be 259 nM.
Next, `COc1cc2nncc(-c3ccnc(N4CCOCC4)c3F)c2cc1OC` [Cpd 42]: 62 nM; `COc1cc2nncc(N3CCc4[nH]nc(C(=O)NC5CC5)c4C3)c2cc1OC` [Cpd 7, N-cyclopropyl-5-(6,7-dimethoxycinnolin-4-yl)-4,5,6,7-tetrahydro-1H-pyrazolo[4,3-c]pyridine-3-carboxamide]: 19.3 nM; `COc1cc2nncc(-c3ccc(Nc4cccc(C#N)c4)nc3)c2cc1OC` [Cpd 95]: 87.9 nM.
On to `COc1cc2nncc(-c3ccc(NC(C)C)nc3C)c2cc1OC` [Cpd 123], for which the IC50 stood at 18.5 nM.
With `COc1cc2nncc(-c3ccc(OCC4CC4)nc3)c2cc1OC` [Cpd 89, 4-(6-(cyclopropylmethoxy)pyridin-3-yl)-6,7-dimethoxycinnoline] the figure was 33.8 nM.
Next, `COc1cc2nncc(-c3ccc(Nc4ccccc4)nc3)c2cc1OC` [Cpd 81]: 89.1 nM; `COc1cc2nncc(-c3ccc(NC(C)C)nc3)c2cc1OC` [Cpd 59]: 8.23 nM; `COc1cc2nncc(-c3cnn(Cc4ccc(C)cc4)c3)c2cc1OC` [Cpd 21, 6,7-Dimethoxy-4-[1-(4-methylbenzyl)-1H-pyrazol-4-yl]cinnoline]: 43.6 nM.
With `COc1cc2nncc(-c3cnn(Cc4ccc(OC(F)(F)F)cc4)c3)c2cc1OC` [Cpd 32, 6,7-dimethoxy-4-{1-[4-(trifluoromethoxy)benzyl]-1H-pyrazol-4-yl}cinnoline] the figure was 459 nM; with `COc1cc2nncc(-c3cccc(C4=NC(C)(C)CO4)c3)c2cc1OC` [Cpd 8, 4-[3-(4,4-Dimethyl-4,5-dihydro-1,3-oxazol-2-yl)phenyl]-6,7-dimethoxycinnoline], 30.6 nM.
`COc1cc2nncc(-c3ccnc(N4CCN(C)C(=O)C4)c3)c2cc1OC` [Cpd 54] came in with an IC50 of 55.8 nM.
In the case of `COc1cc2nncc(-c3cnc(-c4cnc(NC(C)C)c(F)c4)c(F)c3)c2cc1OC` [Cpd 115], 676 nM corresponded to half-maximal inhibition (IC50).
Next, `COc1cc2nncc(-c3cccc(-c4cnn(C)c4)c3)c2cc1OC` [Cpd 5, 6,7-dimethoxy-4-[3-(1-methyl-1H-pyrazol-4-yl)phenyl]cinnoline hydroformate]: 79.8 nM; `COc1cc2nncc(-c3cnn(Cc4ccccc4C#N)c3)c2cc1OC` [Cpd 28, 2-{[4-(6,7-Dimethoxycinnolin-4-yl)-1H-pyrazol-1-yl]methyl}benzonitrile]: 101 nM.
Next, `COc1cc2nncc(N3CCc4cc(N5CCCCC5)ccc4C3=O)c2cc1OC` [Cpd 4, 2-(6,7-dimethoxycinnolin-4-yl)-6-piperidin-1-yl-3,4-dihydroisoquinolin-1(2H)-one]: 167 nM; `COc1cc2nncc(-c3cccc(N4CCOCC4)c3)c2cc1OC` [Cpd 1, 6,7-dimethoxy-4-(3-morpholin-4-ylphenyl)cinnoline]: 57.9 nM.
Next, `COc1cc2nncc(-c3ccc(CN4CC(C(=O)O)C4)cc3)c2cc1OC` [Cpd 101, 1-(4-(6,7-dimethoxycinnolin-4-yl)benzyl)azetidine-3-carboxylic acid]: 231 nM; `CCOC(=O)c1noc2ccc(-c3cnnc4cc(OC)c(OC)cc34)cc12` [Cpd 52]: 48.4 nM; `COc1cc2nncc(-c3ccc(NCCc4ccccn4)nc3)c2cc1OC` [Cpd 93]: 17.9 nM.
In the case of `COc1cc2nncc(-c3ccc(NCC4CCN4C(=O)OC(C)(C)C)nc3)c2cc1OC` (stereo not drawn) [Cpd 65], the IC50 stood at 66.6 nM.
In turn, `COc1cc2nncc(-c3ccc(C(C)=O)c(F)c3)c2cc1OC` [Cpd 100] returned a 50% inhibitory concentration (IC50) of 254 nM.
Next, `COc1cc2nncc(-c3ccc(N4CCOCC4)nc3)c2cc1OC` [Cpd 33, 6,7-Dimethoxy-4-(6-morpholin-4-ylpyridin-3-yl)cinnoline]: 11.1 nM; `CCOC(=O)c1n[nH]c2ccc(-c3cnnc4cc(OC)c(OC)cc34)cc12` [Cpd 12, Ethyl 5-(6,7-dimethoxycinnolin-4-yl)-1H-indazole-3-carboxylate]: 12.1 nM; `COc1cc2nncc(-c3ccc(Nc4ccc(-c5cnco5)cc4)nc3)c2cc1OC` [Cpd 118]: 38.6 nM.
With `COCCNc1ccc(-c2cnnc3cc(OC)c(OC)cc23)cn1` [Cpd 62] the figure was 36.2 nM; with `COc1cc2nncc(-c3ccc(N4CCC(O)(c5ccccc5)CC4)nc3)c2cc1OC` [Cpd 108], 21.4 nM; with `COc1cccc(-n2cc(-c3cnnc4cc(OC)c(OC)cc34)cn2)c1` [Cpd 10, 6,7-Dimethoxy-4-[1-(3-methoxyphenyl)-1H-pyrazol-4-yl]cinnoline hydroformate], 68 nM.
With `COc1cc2nncc(-c3ccc(N4CCC(F)(F)CC4)nc3)c2cc1OC` [Cpd 56] the figure was 29.5 nM; with `COc1cc2nncc(-c3ccc(N4CCC(OC)C4)nc3)c2cc1OC` (stereo not drawn) [Cpd 55], 10.5 nM; with `COc1cc2nncc(-c3cnc(N4CCN(C)CC4)nc3)c2cc1OC` [Cpd 43, 6,7-dimethoxy-4-[2-(4-methylpiperazin-1-yl)pyrimidin-5-yl]cinnoline], 19.9 nM.
Molecule `CCS(=O)(=O)c1cccc(-c2cnnc3cc(OC)c(OC)cc23)c1` [Cpd 3, 4-[3-(Ethylsulfonyl)phenyl]-6,7-dimethoxycinnoline] showed an IC50 of 29.8 nM.
For `COc1cc2nncc(-c3ccc(Nc4ccc(N(C)C)cc4)nc3)c2cc1OC` [Cpd 88], the midpoint of inhibition, the IC50, lay at 179 nM.
Turning to `COc1cc2nncc(-c3ccc(F)c(NC(C)=O)c3)c2cc1OC` [Cpd 146], the IC50 came to 41.5 nM. This IC50 lies about 4.3-fold lower than the previous one.
Next, `COc1cc2nncc(-c3cccc(NC(C)=O)c3)c2cc1OC` [Cpd 14, N-[3-(6,7-dimethoxycinnolin-4-yl)phenyl]acetamide hydroformate]: 43 nM; `COc1cc2nncc(N3CCc4c(OCC5CC5)cccc4C3=O)c2cc1OC` [Cpd 46]: 247 nM; `COc1cc2nncc(-c3ccc(NCCN)nc3)c2cc1OC` [Cpd 63]: 614 nM.
With `COc1cc2nncc(-c3cnn(Cc4ccc(-c5ccccc5)cc4)c3)c2cc1OC` [Cpd 23, 4-[1-(Biphenyl-4-ylmethyl)-1H-pyrazol-4-yl]-6,7-dimethoxycinnoline] the figure was 474 nM; with `COC(=O)c1ccc(Cn2cc(-c3cnnc4cc(OC)c(OC)cc34)cn2)cc1` [Cpd 24, Methyl 4-{[4-(6,7-dimethoxycinnolin-4-yl)-1H-pyrazol-1-yl]methyl}benzoate], 48.7 nM; with `COc1cc2nncc(-c3ccc(Oc4ccccc4)nc3)c2cc1OC` [Cpd 87], 152 nM.
With `COc1cc2nncc(-c3cnn(Cc4ccc(F)cc4)c3)c2cc1OC` [Cpd 35, 4-[1-(4-fluorobenzyl)-1H-pyrazol-4-yl]-6,7-dimethoxycinnoline hydroformate] the figure was 10.4 nM.
On to `COc1cc2nncc(-c3ccc(N4CCn5c(nnc5C(F)(F)F)C4)nc3)c2cc1OC` [Cpd 72], for which the midpoint of inhibition, the IC50, lay at 68.6 nM. Compared with the last molecule, the IC50 is about 6.6-fold higher.
Next, `COc1cc2nncc(-c3ccc(OCc4ccc5ccccc5n4)cc3)c2cc1OC` [Cpd 68]: 106 nM; `COc1cc2nncc(-c3cnn(Cc4cccc(C(F)(F)F)c4)c3)c2cc1OC` [Cpd 26, 6,7-Dimethoxy-4-{1-[3-(trifluoromethyl)benzyl]-1H-pyrazol-4-yl}cinnoline]: 182 nM.
Next, `COc1cc2nncc(-c3ccc(NCc4cccc(OC(F)(F)F)c4)nc3)c2cc1OC` [Cpd 122]: 186 nM; `CNC1CCN(c2ccc(-c3cnnc4cc(OC)c(OC)cc34)cn2)CC1` [Cpd 79]: 362 nM.
Next, `COc1cc2nncc(-c3cccc(N(C)C)c3)c2cc1OC` [Cpd 15, 3-(6,7-Dimethoxycinnolin-4-yl)-N,N-dimethylaniline hydroformate]: 22.8 nM.
Molecule `COc1cc2nncc(-n3ccc4cc(N5CCOCC5)ccc43)c2cc1OC` [Cpd 20, 6,7-dimethoxy-4-(5-morpholin-4-yl-1H-indol-1-yl)cinnoline hydroformate] had an IC50 of 209 nM. Against the preceding molecule, the IC50 is about 9.2-fold higher.

The record behind these values is US20070265256A1, “Phosphodiesterase 10 inhibitors” (priority 2006, published 2007).
